Laboratory results reported in ChEMBL document CHEMBL1201862, “PubChem BioAssay data set” (2004).
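How tested: cells in 96-well plates exposed to compound for 48 hours at five concentrations. GI50 is the concentration that inhibits growth by half.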 The source made the active and inactive calls. Cut-off read from the data, not from the text of the source: active = GI50 up to about 1.1 µM and inactive = higher.

Key:
Experiment in all cases: NCI tumour cell line growth inhibition, 48 h
[1] = system: A549
[2] = system: CCRF-CEM
[3] = system: DMS-273
[4] = system: HCT-116
[5] = system: HT-29
[6] = system: KM-20L2
[7] = system: KM12
[8] = system: LXFL 529
[9] = system: M14
[10] = system: NCI-H460
[11] = system: OVCAR-4
[12] = system: OVCAR-5
[13] = system: OVCAR-8
[14] = system: RXF 393
[15] = system: SF-539
[16] = system: UACC-257
[17] = system: LOX IMVI
[18] = system: COLO 205

Measured: GI50

O=C1CC(c2c[nH]c3ccccc23)C(=O)N1 (stereo not drawn)
inactive: [1] > 100 µM | [2] > 100 µM | [3] > 100 µM | [4] > 100 µM | [5] > 100 µM | [6] > 100 µM | [7] > 100 µM | [8] > 100 µM | [9] > 100 µM | [10] > 100 µM | [11] > 100 µM | [12] > 100 µM | [13] > 100 µM | [14] > 100 µM | [15] > 100 µM | [16] > 100 µM

C/C(CCn1[nH]c(=O)ccc1=O)=N\O
inactive: [1] > 100 µM | [2] > 100 µM | [3] > 100 µM | [4] > 100 µM | [5] > 100 µM | [6] > 100 µM | [7] > 100 µM | [17] > 100 µM | [8] > 100 µM | [9] > 100 µM | [10] > 100 µM | [11] > 100 µM | [12] > 100 µM | [13] > 100 µM | [14] > 100 µM | [15] > 100 µM | [16] > 100 µM

COc1cccc2cc(C)c(C(=O)c3ccccc3)nc12
inactive: [1] > 100 µM | [2] > 100 µM | [18] > 100 µM | [3] > 100 µM | [4] > 100 µM | [6] > 100 µM | [7] > 100 µM | [17] > 100 µM | [8] > 100 µM | [9] > 100 µM | [11] > 100 µM | [12] > 100 µM | [13] > 100 µM | [14] > 100 µM | [15] > 100 µM | [16] 82.2 µM

O=C(CC1=Nc2nnc(CCCCCCCc3nnc4n3C(=O)C(CC(=O)c3ccc5ccccc5c3)=N4)n2C1=O)c1ccc2ccccc2c1
inactive: [1] > 100 µM | [2] > 100 µM | [18] > 100 µM | [3] > 100 µM | [4] > 100 µM | [5] > 100 µM | [6] > 100 µM | [7] > 100 µM | [17] > 100 µM | [8] > 100 µM | [9] > 100 µM | [10] > 100 µM | [11] > 100 µM | [12] > 100 µM | [13] > 100 µM | [14] > 100 µM | [15] > 100 µM | [16] > 100 µM

O=C(Cc1csc(-c2nc(CC(=O)NNc3ccccc3)cs2)n1)NNc1ccccc1
inactive: [1] > 100 µM | [2] 34.9 µM | [18] 25.9 µM | [3] 12.8 µM | [4] 77.1 µM | [5] 71.1 µM | [6] > 100 µM | [7] > 100 µM | [17] 19.6 µM | [8] 91.2 µM | [9] > 100 µM | [10] 23.5 µM | [11] > 100 µM | [12] > 100 µM | [13] > 100 µM | [14] > 100 µM | [15] > 100 µM | [16] > 100 µM

CCOC1=NC(=O)CC(c2ccccc2)S1 (stereo not drawn)
inactive: [1] > 100 µM | [2] 69.3 µM | [18] > 100 µM | [3] > 100 µM | [4] > 100 µM | [5] > 100 µM | [6] > 100 µM | [7] > 100 µM | [17] > 100 µM | [8] > 100 µM | [9] 68.1 µM | [10] > 100 µM | [11] > 100 µM | [12] > 100 µM | [13] > 100 µM | [14] 36.4 µM | [15] > 100 µM | [16] > 100 µM
